# Measured values reported in patent publication US20210024542A1 (Torcept Therapeutics, Inc., priority 2018, published 2021).
# Read-outs that look alike come from different tables or passages of the source.
# Assays:
# TF-1 = assay: OncoPanel cell proliferation assay, TF-1; type: cell-based, human; conditions: for Relative cell count (%) Mean: TF-1
# Experimental: (§1) Cells were grown in RPMI 1640, 10% FBS, 2 mM L-alanyl-L-glutamine, 1 mM Na pyruvate, or a special medium. Cells were seeded into 384-well plates and incubated in a humidified atmosphere of 5% CO2 at 37° C. Compounds were added the day following cell seeding. At the same time, a time zero untreated cell plate was generated. After a 3-day incubation period, cells were fixed and stained to allow fluorescence imaging of nuclei. Compounds (1 mM stock solutions) were serially diluted in half-log steps from the highest test concentration ([…]), and assayed over 10 concentrations with a maximum assay concentration of 0.1% DMSO. Automated fluorescence microscopy was carried out using a Molecular Devices ImageXpress Micro XL high-content imager, and images were collected with a 4× objective. 16-bit TIFF images were acquired and analyzed with MetaXpress 5.1.0.41 software.
# (§2) Cell proliferation was measured by the fluorescence intensity of an incorporated nuclear dye. The output is referred to as the relative cell count, where the measured nuclear intensity is transformed to percent of control (POC) using the following formula: […]
# (§3) Cellular response parameters were calculated using nonlinear regression to a sigmoidal single-site dose response model:
# (§4) Where y is a response measured at concentration x, A and B are the lower and upper limits of the response, C is the concentration at the response midpoint (EC50), and D is the Hill Slope (Ref. 1).
# (§5) EC50 is the test compound concentration at the curve inflection point or half the effective response (parameter C of the fitted curve solution). GI50 is the concentration needed to reduce the observed growth by half (midway between the curve maximum and the time zero value). “Cell Count Activity Area” is an estimate of the integrated area above the curve (Barretina, et al. The Cancer Cell Line Encyclopedia enables predictive modelling of anticancer drug sensitivity. Nature 483: 603-607). […] In rare instances, values <0 or >10 may be observed. […] Curve-fitting, calculations, and report generation was performed using a custom data reduction engine and MathIQ based software (AIM).
# SK-N-AS = assay: OncoPanel cell proliferation assay, SK-N-AS; type: cell-based, human
# Experimental: as §1, §2, §3, §4, §5
# T24 = assay: OncoPanel cell proliferation assay, T24; type: cell-based, human; conditions: for Relative cell count (%) Mean: T24
# Experimental: as §1, §2, §3, §4, §5
# OVCAR3 = assay: OncoPanel cell proliferation assay, OVCAR3; conditions: for Relative cell count (%) Mean: OVCAR3
# Experimental: (§6) Cells were seeded into 384-well plates and incubated in a humidified atmosphere of 5% CO2 at 37° C. Compounds were added the day following cell seeding. At the same time, a time zero untreated cell plate was generated. After a 3-day incubation period, cells were fixed and stained to allow fluorescence imaging of nuclei. Compounds (1 mM stock solutions) were serially diluted in half-log steps from the highest test concentration (1 micromol), and assayed over 10 concentrations with a maximum assay concentration of 0.1% DMSO. Automated fluorescence microscopy was carried out using a Molecular Devices ImageXpress Micro XL high-content imager, and images were collected with a 4× objective. 16-bit TIFF images were acquired and analyzed with MetaXpress 5.1.0.41 software.
# (§7) GI50 is the concentration needed to reduce the observed growth by half (midway between the curve maximum and the time zero value). […] In rare instances, values <0 or >10 may be observed. […] Curve-fitting, calculations, and report generation was performed using a custom data reduction engine and MathIQ based software (AIM).
# AsPC-1 = assay: OncoPanel cell proliferation assay, AsPC-1; conditions: for Relative cell count (%) Mean: AsPC-1
# Experimental: as §6, §7
# SNU-C2B = assay: OncoPanel cell proliferation assay, SNU-C2B; type: cell-based, human
# Experimental: as §1, §2, §3, §4, §5
# [1] = Homo sapiens, 72 h, 3-day incubation, read-out: Cell Count EC50
# [2] = Homo sapiens, 72 h, 3-day incubation, read-out: Cell Count GI50
# [3] = Homo sapiens, 72 h, 3-day incubation, read-out: Cell Count IC50
smiles,measurement,setting,value
"CO[C@H]1C[C@@H]2CC[C@@H](C)[C@@](O)(O2)C(=O)C(=O)N2CCCC[C@H]2C(=O)O[C@H]([C@H](C)C[C@@H]2C[C@@H]3C[C@H]2C[C@H]3O)CC(=O)[C@H](C)/C=C(\C)[C@@H](O)[C@@H](OC)C(=O)[C@H](C)C[C@H](C)/C=C/C=C/C=C/1C [Formula I, 37R-hydroxynorbornylrapamycin]",EC50,"TF-1; Homo sapiens, 72 h, TF-1, 3-day incubation, read-out: Cell Count EC50",> 1000 nM
same,GI50,"TF-1; Homo sapiens, 72 h, TF-1, 3-day incubation, read-out: Cell Count GI50",> 1000 nM
same,IC50,"TF-1; Homo sapiens, 72 h, TF-1, 3-day incubation, read-out: Cell Count IC50",> 1000 nM
same,Cell Count Activity Area,"TF-1; TF-1, scale 0-10",1.64
same,Relative cell count (%) Mean,TF-1; 1.00E+00 microM,80.6%
same,Relative cell count (%) Mean,TF-1; 1.00E−01 microM,80.1%
same,Relative cell count (%) Mean,TF-1; 1.00E−02 microM,81.1%
same,Relative cell count (%) Mean,TF-1; 1.00E−03 microM,87.4%
same,Relative cell count (%) Mean,TF-1; 1.01E−04 microM,97.8%
same,Relative cell count (%) Mean,TF-1; 3.16E−01 microM,80.1%
same,Relative cell count (%) Mean,TF-1; 3.17E−02 microM,81.3%
same,Relative cell count (%) Mean,TF-1; 3.17E−03 microM,88.0%
same,Relative cell count (%) Mean,TF-1; 3.18E−04 microM,88.0%
same,Relative cell count (%) Mean,TF-1; 3.18E−05 microM,96.7%
same,Relative cell count (%) Mean,SK-N-AS; 1.00E+00 microM,45.8%
same,Relative cell count (%) Mean,SK-N-AS; 1.00E−01 microM,51.0%
same,Relative cell count (%) Mean,SK-N-AS; 1.00E−02 microM,53.6%
same,Relative cell count (%) Mean,SK-N-AS; 1.00E−03 microM,62.3%
same,Relative cell count (%) Mean,SK-N-AS; 1.01E−04 microM,84.8%
same,Relative cell count (%) Mean,SK-N-AS; 3.16E−01 microM,48.3%
same,Relative cell count (%) Mean,SK-N-AS; 3.17E−02 microM,52.4%
same,Relative cell count (%) Mean,SK-N-AS; 3.17E−03 microM,56.7%
same,Relative cell count (%) Mean,SK-N-AS; 3.18E−04 microM,77.7%
same,Relative cell count (%) Mean,SK-N-AS; 3.18E−05 microM,102.1%
same,EC50,SK-N-AS; [1],0.283 nM
same,GI50,SK-N-AS; [2],0.826 nM
same,IC50,SK-N-AS; [3],7.35 nM
same,Cell Count Activity Area,SK-N-AS; scale 0-10,3.99
same,EC50,"T24; Homo sapiens, T-24, 72 h, T24, 3-day incubation, read-out: Cell Count EC50",0.102 nM
same,GI50,"T24; Homo sapiens, T-24, 72 h, T24, 3-day incubation, read-out: Cell Count GI50",0.475 nM
same,IC50,"T24; Homo sapiens, T-24, 72 h, T24, 3-day incubation, read-out: Cell Count IC50",0.905 nM
same,Cell Count Activity Area,"T24; T24, scale 0-10",4.92
same,Relative cell count (%) Mean,T24; 1.00E+00 microM,38.7%
same,Relative cell count (%) Mean,T24; 1.00E−01 microM,41.3%
same,Relative cell count (%) Mean,T24; 1.00E−02 microM,43.9%
same,Relative cell count (%) Mean,T24; 1.00E−03 microM,49.5%
same,Relative cell count (%) Mean,T24; 1.01E−04 microM,68.7%
same,Relative cell count (%) Mean,T24; 3.16E−01 microM,37.1%
same,Relative cell count (%) Mean,T24; 3.17E−02 microM,42.0%
same,Relative cell count (%) Mean,T24; 3.17E−03 microM,46.0%
same,Relative cell count (%) Mean,T24; 3.18E−04 microM,57.0%
same,Relative cell count (%) Mean,T24; 3.18E−05 microM,84.1%
same,EC50,OVCAR3; Homo sapiens,650 nM
same,EC50,"OVCAR3; Homo sapiens, OVCAR-3, 72 h, read-out: Cell Count EC50",646 nM
same,GI50,"OVCAR3; Homo sapiens, OVCAR-3, 72 h, read-out: Cell Count GI50",65.8 nM
same,IC50,"OVCAR3; Homo sapiens, OVCAR-3, 72 h, read-out: Cell Count IC50",> 1000 nM
same,Cell Count Activity Area,"OVCAR3; OVCAR3, scale 0-10",2.43
same,Relative cell count (%) Mean,OVCAR3; 1.00E+00 microM,61.8%
same,Relative cell count (%) Mean,OVCAR3; 1.00E−01 microM,72.8%
same,Relative cell count (%) Mean,OVCAR3; 1.00E−02 microM,85.0%
same,Relative cell count (%) Mean,OVCAR3; 1.00E−03 microM,90.2%
same,Relative cell count (%) Mean,OVCAR3; 1.01E−04 microM,93.3%
same,Relative cell count (%) Mean,OVCAR3; 3.16E−01 microM,61.7%
same,Relative cell count (%) Mean,OVCAR3; 3.17E−02 microM,79.9%
same,Relative cell count (%) Mean,OVCAR3; 3.17E−03 microM,85.2%
same,Relative cell count (%) Mean,OVCAR3; 3.18E−04 microM,89.7%
same,Relative cell count (%) Mean,OVCAR3; 3.18E−05 microM,106.9%
same,Cell Count Activity Area,"AsPC-1; AsPC-1, scale 0-10",2.50
same,Relative cell count (%) Mean,AsPC-1; 1.00E+00 microM,64.8%
same,Relative cell count (%) Mean,AsPC-1; 1.00E−01 microM,74.0%
same,Relative cell count (%) Mean,AsPC-1; 1.00E−02 microM,68.9%
same,Relative cell count (%) Mean,AsPC-1; 1.00E−03 microM,81.7%
same,Relative cell count (%) Mean,AsPC-1; 1.01E−04 microM,89.6%
same,Relative cell count (%) Mean,AsPC-1; 3.16E−01 microM,67.9%
same,Relative cell count (%) Mean,AsPC-1; 3.17E−02 microM,74.7%
same,Relative cell count (%) Mean,AsPC-1; 3.17E−03 microM,77.8%
same,Relative cell count (%) Mean,AsPC-1; 3.18E−04 microM,94.5%
same,Relative cell count (%) Mean,AsPC-1; 3.18E−05 microM,99.5%
same,EC50,"AsPC-1; Homo sapiens, ASPC1",0.52 nM
same,EC50,"AsPC-1; Homo sapiens, ASPC1, 72 h, read-out: Cell Count EC50",0.519 nM
same,GI50,"AsPC-1; Homo sapiens, ASPC1, 72 h, read-out: Cell Count GI50",8.07 nM
same,IC50,"AsPC-1; Homo sapiens, ASPC1, 72 h, read-out: Cell Count IC50",> 1000 nM
same,Relative cell count (%) Mean,SNU-C2B; 1.00E+00 microM,58.7%
same,Relative cell count (%) Mean,SNU-C2B; 1.00E−01 microM,65.6%
same,Relative cell count (%) Mean,SNU-C2B; 1.00E−02 microM,68.6%
same,Relative cell count (%) Mean,SNU-C2B; 1.00E−03 microM,73.7%
same,Relative cell count (%) Mean,SNU-C2B; 1.01E−04 microM,89.1%
same,Relative cell count (%) Mean,SNU-C2B; 3.16E−01 microM,55.1%
same,Relative cell count (%) Mean,SNU-C2B; 3.17E−02 microM,63.2%
same,Relative cell count (%) Mean,SNU-C2B; 3.17E−03 microM,71.6%
same,Relative cell count (%) Mean,SNU-C2B; 3.18E−04 microM,79.6%
same,Relative cell count (%) Mean,SNU-C2B; 3.18E−05 microM,83.2%
same,EC50,SNU-C2B; [1],2.07 nM
same,GI50,SNU-C2B; [2],24.1 nM
same,IC50,SNU-C2B; [3],> 1000 nM
